According to patent publication US20250108036A1, “COMPOSITIONS FOR REMOVING SENESCENT CELLS AND USES THEREOF” (LIFECEUTIX CO., LTD., priority 2021, published 2025):

How the values were obtained:
Format in all cases: cell-based, human
[1] = tested on: HMGN1; experiment: HMGN1 ELISA in culture medium of foreskin cells (Examples 10, 11; Tables 62, 63, 64); details: Homo sapiens, 30 μM test compound, doxorubicin-treated foreskin cells, DMSO = 100; read-out: HMGN1
[2] = tested on: HMGN1; experiment: HMGN1 ELISA in culture medium of A549 cancer cells (Example 12, Table 66); details: Homo sapiens, A549, doxorubicin-induced senescent A549 cells, test compound 90 μM, ELISA, DMSO = 100; read-out: HMGN1 (amount of HMGN1 secreted in the cell culture)
[3] = tested on: foreskin cells in which senescence was induced by doxorubicin; experiment: CellTiter-Glo cell viability of doxorubicin-induced senescent foreskin cells (Examples 1-2, 10, 11, 13; Tables 4, 63, 65); details: doxorubicin-induced senescent foreskin cells, CellTiter-Glo, 0 μM = 100; for viability at 1.1 µM / viability at 10 µM / viability at 30 µM / viability at […]: Homo sapiens, 72 h, read-out: Survival (%)
Experimental: After 3 days, cell viability was measured using CellTiter-Glo Luminescent Cell Viability Assay (Promega) or light microscopy.

[4] = tested on: A549; experiment: CellTiter-Glo cell viability of senescent A549 cancer cells (Example 12, Table 67); details: CellTiter-Glo; for viability at 1.1 µM / viability at 10 µM / viability at 30 µM / viability at 90 µM: Homo sapiens, A549, doxorubicin-induced senescent A549 cancer cells, read-out: Survival (%); for Survival (%): doxorubicin-induced senescent A549 cancer cells

Work on CCn1c2ccc(CNC)cc2c2ccc(-c3cnoc3)cc21 [LX-903] yielded an activity at 30 µM [1] of 324%, an activity at 90 µM [2] of 239% and a viability at 1.1 µM ([3]; 1.1 μM test compound) of 104%. For the same molecule, the viability at 10 µM ([3]; 10 μM test compound) was 73.2%, the viability at 30 µM ([3]; 30 μM test compound) was 5.7% and the viability at […] ([3]; […] test compound) was 89.8%. The viability at 1.1 µM ([4]; 1.1 μM test compound) was 98.9%, the viability at 10 µM ([4]; 10 μM test compound) was 81.6% and the viability at 30 µM ([4]; 30 μM test compound) was 42.7%. The viability at 90 µM ([4]; 90 μM test compound) was 12.3%.
CCn1c(C#CCNc2ccccc2)cc2cc(CNC)ccc21 [LX-905] was tested, and the activity at 30 µM [1] was 318%, the activity at 90 µM [2] was 217% and the viability at 1.1 µM ([3]; 1.1 μM test compound) was 97.6%. The viability at 10 µM ([3]; 10 μM test compound) was 42.5%, the viability at 30 µM ([3]; 30 μM test compound) was 6.9% and the viability at […] ([3]; […] test compound) was 91.6%. The viability at 1.1 µM ([4]; 1.1 μM test compound) was 101%, the viability at 10 µM ([4]; 10 μM test compound) was 83.1% and the viability at 30 µM ([4]; 30 μM test compound) was 79.5%. It also gave a viability at 90 µM ([4]; 90 μM test compound) of 22.7%.
Work on Cn1cc(-c2ccccc2)c(-n2cccc2)n1 [LX-907] yielded an activity at 30 µM [1] of 297%, an activity at 90 µM [2] of 264% and a viability at 1.1 µM ([3]; 1.1 μM test compound) of 98.8%. For the same molecule, the viability at 10 µM ([3]; 10 μM test compound) was 62.8%, the viability at 30 µM ([3]; 30 μM test compound) was 9.7% and the viability at […] ([3]; […] test compound) was 95.1%. It also gave a viability at 1.1 µM ([4]; 1.1 μM test compound) of 90.1%, a viability at 10 µM ([4]; 10 μM test compound) of 78.5% and a viability at 30 µM ([4]; 30 μM test compound) of 53.7%. The viability at 90 µM ([4]; 90 μM test compound) was 5.9%.
CN(C)CCn1cc(-c2ccc(F)cc2)c(-n2cccc2)n1 [LX-909] was tested, and the activity at 30 µM [1] was 267%, the activity at 90 µM [2] was 240% and the “Survival (%)” value ([3]; 1.1 μM test compound) was 100.5%. For the same molecule, the “Survival (%)” value ([3]; 10 μM test compound) was 75.1%, the “Survival (%)” value ([3]; 30 μM test compound) was 2.8% and the “Survival (%)” value ([3]; […] test compound) was 85.5%. The “Survival (%)” value ([4]; 1.1 μM test compound) was 96.7%, the “Survival (%)” value ([4]; 10 μM test compound) was 85.6% and the “Survival (%)” value ([4]; 30 μM test compound) was 77.2%. For the same molecule, the “Survival (%)” value ([4]; 90 μM test compound) was 17.5%.
In the case of CCN(CC)C1CCN(Cc2cc(C#CCNc3ccccc3)cc(I)c2O)CC1 [LX-910], the activity at 30 µM [1] is reported as 278%, the activity at 90 µM [2] is reported as 238% and the viability at 1.1 µM ([3]; 1.1 μM test compound) is reported as 95.6%. It also gave a viability at 10 µM ([3]; 10 μM test compound) of 68.4%, a viability at 30 µM ([3]; 30 μM test compound) of 1.1% and a viability at […] ([3]; […] test compound) of 84.7%. It also gave a viability at 1.1 µM ([4]; 1.1 μM test compound) of 95.8%, a viability at 10 µM ([4]; 10 μM test compound) of 76.9% and a viability at 30 µM ([4]; 30 μM test compound) of 47.5%. The viability at 90 µM ([4]; 90 μM test compound) was 2.7%.
Molecule CCN(CC)c1nc2c(C(=O)O)c(O)c(I)c(-n3cccc3)c2s1 [LX-911] has an activity at 30 µM [1] of 294%, an activity at 90 µM [2] of 206% and a viability at 1.1 µM ([3]; 1.1 μM test compound) of 94.3%. It also gave a viability at 10 µM ([3]; 10 μM test compound) of 43.5%, a viability at 30 µM ([3]; 30 μM test compound) of 7.5% and a viability at […] ([3]; […] test compound) of 91.6%. The viability at 1.1 µM ([4]; 1.1 μM test compound) was 98.4%, the viability at 10 µM ([4]; 10 μM test compound) was 82.9% and the viability at 30 µM ([4]; 30 μM test compound) was 78.6%. For the same molecule, the viability at 90 µM ([4]; 90 μM test compound) was 27.4%.
Work on CCNC(=O)c1c(O)c(I)c(-n2cccc2)c2sc(N(CC)CC)nc12 [LX-912] yielded an activity at 30 µM [1] of 317%, an activity at 90 µM [2] of 244% and a viability at 1.1 µM ([3]; 1.1 μM test compound) of 104%. For the same molecule, the viability at 10 µM ([3]; 10 μM test compound) was 32.7%, the viability at 30 µM ([3]; 30 μM test compound) was 3.1% and the viability at […] ([3]; […] test compound) was 85.2%. It also gave a viability at 1.1 µM ([4]; 1.1 μM test compound) of 92.4%, a viability at 10 µM ([4]; 10 μM test compound) of 83.9% and a viability at 30 µM ([4]; 30 μM test compound) of 32.4%. The viability at 90 µM ([4]; 90 μM test compound) was 6.7%.
In the case of COC(=O)/C=C\C(C#N)(C#N)/N=C/c1ccc(C)cc1 [LX-920], the activity at 30 µM [1] is reported as 278%, the activity at 90 µM [2] is reported as 197% and the viability at 1.1 µM ([3]; 1.1 μM test compound) is reported as 100%. The viability at 10 µM ([3]; 10 μM test compound) was 86.2%, the viability at 30 µM ([3]; 30 μM test compound) was 23.8% and the viability at […] ([3]; […] test compound) was 95.4%. The viability at 1.1 µM ([4]; 1.1 μM test compound) was 98.4%, the viability at 10 µM ([4]; 10 μM test compound) was 95.3% and the viability at 30 µM ([4]; 30 μM test compound) was 93.9%. The viability at 90 µM ([4]; 90 μM test compound) was 25.1%.
With C=C(CN(C)C)C(=O)c1cc(C)ccc1C [LX-921] the activity at 30 µM [1] was 311%, the activity at 90 µM [2] was 175% and the viability at 1.1 µM ([3]; 1.1 μM test compound) was 99.6%. It also gave a viability at 10 µM ([3]; 10 μM test compound) of 89.1%, a viability at 30 µM ([3]; 30 μM test compound) of 15.7% and a viability at […] ([3]; […] test compound) of 89.2%. The viability at 1.1 µM ([4]; 1.1 μM test compound) was 99.5%, the viability at 10 µM ([4]; 10 μM test compound) was 91.2% and the viability at 30 µM ([4]; 30 μM test compound) was 90.9%. For the same molecule, the viability at 90 µM ([4]; 90 μM test compound) was 39.7%.
C=C(CN(C)C)C(=O)c1ccc(C)cc1C [LX-923] gave an activity at 30 µM [1] of 271%, an activity at 90 µM [2] of 219% and a viability at 1.1 µM ([3]; 1.1 μM test compound) of 97.7%. It also gave a viability at 10 µM ([3]; 10 μM test compound) of 75.7%, a viability at 30 µM ([3]; 30 μM test compound) of 19.5% and a viability at […] ([3]; […] test compound) of 94.5%. It also gave a viability at 1.1 µM ([4]; 1.1 μM test compound) of 96.7%, a viability at 10 µM ([4]; 10 μM test compound) of 89.4% and a viability at 30 µM ([4]; 30 μM test compound) of 81.7%. It also gave a viability at 90 µM ([4]; 90 μM test compound) of 15.7%.
With CC(C)Oc1ccc(-c2ccccc2)cc1-n1c(CN2CCN(C(=O)COc3ccc(Cl)cc3)CC2)nc2ccccc2c1=O [LX-1001] the activity at 30 µM [1] was 231%, the activity at 90 µM [2] was 183% and the viability at 1.1 µM ([3]; 1.1 μM test compound) was 89.9%. For the same molecule, the viability at 10 µM ([3]; 10 μM test compound) was 57.7%, the viability at 30 µM ([3]; 30 μM test compound) was 34.5% and the viability at […] ([3]; […] test compound) was 81.8%. For the same molecule, the viability at 1.1 µM ([4]; 1.1 μM test compound) was 95.5%, the viability at 10 µM ([4]; 10 μM test compound) was 92.2% and the viability at 30 µM ([4]; 30 μM test compound) was 71.8%. The viability at 90 µM ([4]; 90 μM test compound) was 25.3%.
